Results from ChEMBL document CHEMBL1201862, “PubChem BioAssay data set” (2004).
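Method: 48-hour compound exposure of cells in 96-well plates, five concentrations, linear interpolation of endpoints. GI50 = concentration required for 50% inhibition of growth.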 Calls of active or inactive are those of the source. Rule as the data show it: active = GI50 up to about 1.1 µM and inactive = higher.

How the values were obtained:
Experiment in all cases: NCI anticancer screen, dose series, 48 h
[1] = system: 786-0
[2] = system: ACHN
[3] = system: BT-549
[4] = system: HCT-15
[5] = system: Hs-578T
[6] = system: MCF7
[7] = system: NCI-H226
[8] = system: NCI-H522
[9] = system: NCI/ADR-RES
[10] = system: OVCAR-5
[11] = system: OVCAR-8
[12] = system: RPMI-8226
[13] = system: SK-MEL-2
[14] = system: SK-MEL-5
[15] = system: SK-OV-3
[16] = system: TK-10
[17] = system: UACC-257
[18] = system: UO-31
[19] = system: MOLT-4
[20] = system: HCC 2998

In the case of `CC(C)(CO)N1CCN(C(S)=Nc2ccccc2)CC1`, the GI50 [1] is reported as > 100 µM (inactive), the GI50 [2] is reported as > 100 µM (inactive) and the GI50 [3] is reported as > 100 µM (inactive). The GI50 [4] was > 100 µM, the GI50 [5] was > 100 µM (inactive) and the GI50 [6] was > 100 µM (inactive). For the same compound, the GI50 [7] was > 100 µM (inactive), the GI50 [8] was > 100 µM (inactive) and the GI50 [9] was > 100 µM (inactive). For the same compound, the GI50 [10] was > 100 µM (inactive), the GI50 [11] was > 100 µM (inactive) and the GI50 [12] was > 100 µM (inactive). For the same compound, the GI50 [13] was > 100 µM (inactive), the GI50 [14] was > 100 µM (inactive) and the GI50 [15] was > 100 µM (inactive). The GI50 [16] was > 100 µM (inactive), the GI50 [17] was > 100 µM (inactive) and the GI50 [18] was > 100 µM (inactive).

`COCCOC(=O)c1c(C)[n+]([O-])c2cc(Cl)c(Cl)cc2[n+]1[O-]` was tested, and the GI50 [1] was 22.6 µM (inactive), the GI50 [2] was 12.7 µM (inactive) and the GI50 [3] was 19.1 µM (inactive). The GI50 [4] was 8.71 µM, the GI50 [5] was 32.7 µM (inactive) and the GI50 [6] was 11.1 µM (inactive). For the same compound, the GI50 [19] was 13.1 µM (inactive), the GI50 [8] was 17.1 µM (inactive) and the GI50 [9] was 11 µM (inactive). For the same compound, the GI50 [10] was 16.7 µM (inactive), the GI50 [11] was 7.06 µM (inactive) and the GI50 [12] was 4.69 µM (inactive). For the same compound, the GI50 [13] was 25.3 µM (inactive), the GI50 [14] was 7.6 µM (inactive) and the GI50 [15] was 17.9 µM (inactive). The GI50 [16] was 23.2 µM (inactive), the GI50 [17] was 20.2 µM (inactive) and the GI50 [18] was 0.311 µM (active).

`COc1ccc(/N=N/c2c(O)ccc3ccccc23)cc1` was tested, and the GI50 [1] was 61.8 µM (inactive), the GI50 [2] was 20.4 µM (inactive) and the GI50 [3] was 27.4 µM (inactive). The GI50 [4] was 57.8 µM, the GI50 [5] was 11.2 µM (inactive) and the GI50 [19] was > 100 µM (inactive). The GI50 [7] was 17.7 µM (inactive), the GI50 [8] was 23 µM (inactive) and the GI50 [9] was 22.4 µM (inactive). For the same compound, the GI50 [10] was 17.5 µM (inactive), the GI50 [11] was 13.2 µM (inactive) and the GI50 [13] was 35.6 µM (inactive). The GI50 [15] was 8.2 µM (inactive), the GI50 [16] was 17.1 µM (inactive) and the GI50 [17] was > 100 µM (inactive). For the same compound, the GI50 [18] was 31.3 µM (inactive).

In the case of `CC(=O)CC1CCC(=O)CCC(=O)OC(CC(C)=O)CCC(=O)CCC(=O)O1` (stereo unspecified), the GI50 [1] is reported as > 100 µM (inactive), the GI50 [2] is reported as > 100 µM (inactive) and the GI50 [3] is reported as > 100 µM (inactive). For the same compound, the GI50 [20] was > 100 µM (inactive), the GI50 [4] was > 100 µM and the GI50 [5] was > 100 µM (inactive). For the same compound, the GI50 [6] was > 100 µM (inactive), the GI50 [19] was > 100 µM (inactive) and the GI50 [7] was > 100 µM (inactive). For the same compound, the GI50 [8] was > 100 µM (inactive), the GI50 [9] was > 100 µM (inactive) and the GI50 [10] was > 100 µM (inactive). The GI50 [11] was > 100 µM (inactive), the GI50 [12] was > 100 µM (inactive) and the GI50 [14] was > 100 µM (inactive). The GI50 [15] was > 100 µM (inactive), the GI50 [16] was > 100 µM (inactive) and the GI50 [17] was > 100 µM (inactive).

`C/C(=N\Nc1ccc([N+](=O)[O-])cc1[N+](=O)[O-])c1ccc2ccccc2n1` was tested, and the GI50 [1] was 78.3 µM (inactive), the GI50 [2] was 42.8 µM (inactive) and the GI50 [3] was 53.6 µM (inactive). For the same compound, the GI50 [4] was 60.3 µM, the GI50 [5] was 25.3 µM (inactive) and the GI50 [6] was 89.9 µM (inactive). The GI50 [19] was > 100 µM (inactive), the GI50 [7] was 88.1 µM (inactive) and the GI50 [8] was 13.7 µM (inactive). The GI50 [9] was 46 µM (inactive), the GI50 [10] was > 100 µM (inactive) and the GI50 [11] was 47.3 µM (inactive). The GI50 [12] was > 100 µM (inactive), the GI50 [13] was > 100 µM (inactive) and the GI50 [14] was 47.1 µM (inactive). For the same compound, the GI50 [15] was > 100 µM (inactive), the GI50 [16] was 39.6 µM (inactive) and the GI50 [17] was > 100 µM (inactive). The GI50 [18] was 51.4 µM (inactive).

In the case of `c1ccc(CNc2nncc3[nH]cnc23)cc1`, the GI50 [1] is reported as > 100 µM (inactive), the GI50 [2] is reported as > 100 µM (inactive) and the GI50 [3] is reported as > 100 µM (inactive). For the same compound, the GI50 [20] was > 100 µM (inactive), the GI50 [4] was > 100 µM and the GI50 [6] was > 100 µM (inactive). The GI50 [19] was > 100 µM (inactive), the GI50 [7] was > 100 µM (inactive) and the GI50 [8] was > 100 µM (inactive). For the same compound, the GI50 [9] was > 100 µM (inactive), the GI50 [10] was > 100 µM (inactive) and the GI50 [11] was > 100 µM (inactive). The GI50 [12] was > 100 µM (inactive), the GI50 [13] was > 100 µM (inactive) and the GI50 [14] was > 100 µM (inactive). For the same compound, the GI50 [15] was > 100 µM (inactive), the GI50 [16] was > 100 µM (inactive) and the GI50 [17] was > 100 µM (inactive). The GI50 [18] was > 100 µM (inactive).

With `COC(=O)c1ccc2c(c1)CC1(C2)Cc2cc3c(c(C(=O)OC)c2C1)CCCC3` (stereo unspecified) the GI50 [1] was 64.1 µM (inactive), the GI50 [2] was 47.8 µM (inactive) and the GI50 [3] was > 10 µM (inactive). The GI50 [20] was 86.5 µM (inactive), the GI50 [4] was 67.8 µM and the GI50 [5] was > 100 µM (inactive). For the same compound, the GI50 [6] was 68.5 µM (inactive), the GI50 [19] was 42.7 µM (inactive) and the GI50 [7] was 96.8 µM (inactive). For the same compound, the GI50 [8] was > 100 µM (inactive), the GI50 [9] was 82.8 µM (inactive) and the GI50 [10] was > 100 µM (inactive). The GI50 [11] was > 100 µM (inactive), the GI50 [12] was 38.4 µM (inactive) and the GI50 [14] was 21.2 µM (inactive). For the same compound, the GI50 [15] was 41.7 µM (inactive), the GI50 [16] was 72.1 µM (inactive) and the GI50 [17] was 48.4 µM (inactive). The GI50 [18] was > 100 µM (inactive).

For `CC(=O)NCC1OC2COC(c3ccccc3)OC2C2N=C(c3ccccc3)OC12` (stereo unspecified), the GI50 [1] was > 100 µM (inactive), the GI50 [2] was 45.5 µM (inactive) and the GI50 [3] was 68.1 µM (inactive). For the same compound, the GI50 [20] was 66.5 µM (inactive), the GI50 [4] was 43.4 µM and the GI50 [5] was 51.5 µM (inactive). For the same compound, the GI50 [6] was 41.9 µM (inactive), the GI50 [19] was 43.2 µM (inactive) and the GI50 [7] was 67.5 µM (inactive). For the same compound, the GI50 [9] was 42.5 µM (inactive), the GI50 [10] was > 100 µM (inactive) and the GI50 [11] was 57 µM (inactive). The GI50 [12] was 29.4 µM (inactive), the GI50 [13] was 53.6 µM (inactive) and the GI50 [14] was 39.2 µM (inactive). The GI50 [15] was 74.1 µM (inactive), the GI50 [16] was 58.2 µM (inactive) and the GI50 [17] was 57.5 µM (inactive). The GI50 [18] was 39.9 µM (inactive).
